Usually IC50 stands for the concentration needed to halve the response being measured.

This note sets out measurements from US7098241B2, “Thiophene hydroxamic acid derivatives” (Hoffmann-La Roche Inc., priority 2002, dated 2006).

The test system of experiment [1] is HT-29 cells (human colon carcinoma cell line). As to the kind of experiment: MTT anti-proliferation assay on HT-29 cells. The experiment is classed as cell-based. The following applies: 384 well plates, 5 days, read-out: IC50 HT29 384. The text has this: MTT (3-(4,5-dimethylthiazol-2-yl)-2,5-diphenyl tetrazolium bromide) is widely used for the quantitative determination of cytotoxic effects or in vitro chemosensitivity of tumor cells. The assay is based on the cleavage of the yellow tetrazolium salt (MTT) to purple formazan crystals by metabolic active cells. For details, see Rubinstein, L. V., et al., J. Natl. Cancer Inst. 82 (1990) 1113.
We proceeded as follows: HT-29 cells (human colon carcinoma cell line) were cultivated in RPMI 1640, 2.5% FCS, 2 mM glutamine, 100 u/ml penicillin, 100 ug/ml streptomycin. For the assay the cells were seeded in 384 well plates, 900 cells per well, in the same medium. At the next day, the compounds (dissolved 10 mM in DMSO) were added in various concentrations ranging from 30 uM to 1.5 nM. After 5 days, the MTT assay was done mainly according to the instructions of the manufacturer (Cell proliferation kit I, MTT, from Roche Molecular Biochemicals). In brief: MTT labeling reagent was added to a final concentration of 0.5 mg/ml, added and incubated for 4 hrs at 37° C., 5% CO2. During this incubation time purple formazan crystals are formed. After addition of the solubilization solution (20% SDS in 0.02 M HCl) the plates were incubated overnight at 37° C., 5% CO2. After careful mixing, the plates were measured in Victor 2 (scanning multiwell spectrophotometer, Wallac) at 550 nm.
A decrease in number of living cells results in a decrease in the total metabolic activity in the sample. The decrease directly correlates to the amount of purple color resulting from the solubilization of the purple formazan crystals. Determination of IC50 was done using XL-fit.
Background: Tetrazolium assays rely on reduction of a dye to a coloured formazan, in cell work by metabolically active cells.

A further experiment concerns the target T1, recombinant HDAC-1 (Homo sapiens, UniProt Q13547).
T1 construct: made in house; host or cells: HEK 293 cells
As to the kind of experiment: HDAC biochemical quench assay. To be noted: recombinant HDAC-1 purified from HEK 293 cells, 1 uM peptide substrate, 90 min at room temperature. The text has this: The function of histone deacetylase (HDAC) is the deacetylation of lysines in e.g. histone H4. A peptide of 17 amino acids derived from histone H4 was labeled with TAMRA at the C-terminus and QSY-7 at the N-terminus and was used as a substrate (TAMRA-first17 aa of histone H4-QSY7). Following deacetylation by HDAC, the enzyme Lys C is able to cleave the peptide after lysine. […] Inhibition of HDAC by compounds results in low signals because Lys C could not cleave the substrate and the quench effect persists.
For dose response curves, 10 concentrations were diluted 1:3 starting at 30 uM. 10 ul compound dilution were put into each well of a 384 well plate. 10 ul HDAC were added (recombinant HDAC-1 purified from HEK 293 cells; enzyme activity has to be assessed for each preparation). 10 ul peptide substrate was added (1 uM final concentration, derived from 1 mM stock solution diluted 1:1000 in test buffer). After 90 min incubation at room temperature, the reaction was stopped by addition of 20 ul test buffer including 3 ug/ml Lys C and 0.075% SDS. After overnight incubation the fluorescence signal of TAMRA was measured (Victor 2 from Wallac, absorption 544 nm, emission 590 nm). The O.D. of DMSO-treated control wells is 100%, the % inhibition of compound treated wells is calculated in relation to 100%. Based on 10 concentrations a IC50 curve is generated by using XL.fit3.
Test buffer used: a mixture of 10 mM Hepes pH8, 10 mM NaCl, 10% Glycerol, 0.005% Triton X100, 0.1 mM EDTA, 0.1 mM TCEP. As plates were used 384 well plates (black, Greiner, 781077).

SMILES strings stand for the structures. Read-outs that look alike come from different tables or passages of the source.

T1 sequence (Q13547 whole entry, species assumed): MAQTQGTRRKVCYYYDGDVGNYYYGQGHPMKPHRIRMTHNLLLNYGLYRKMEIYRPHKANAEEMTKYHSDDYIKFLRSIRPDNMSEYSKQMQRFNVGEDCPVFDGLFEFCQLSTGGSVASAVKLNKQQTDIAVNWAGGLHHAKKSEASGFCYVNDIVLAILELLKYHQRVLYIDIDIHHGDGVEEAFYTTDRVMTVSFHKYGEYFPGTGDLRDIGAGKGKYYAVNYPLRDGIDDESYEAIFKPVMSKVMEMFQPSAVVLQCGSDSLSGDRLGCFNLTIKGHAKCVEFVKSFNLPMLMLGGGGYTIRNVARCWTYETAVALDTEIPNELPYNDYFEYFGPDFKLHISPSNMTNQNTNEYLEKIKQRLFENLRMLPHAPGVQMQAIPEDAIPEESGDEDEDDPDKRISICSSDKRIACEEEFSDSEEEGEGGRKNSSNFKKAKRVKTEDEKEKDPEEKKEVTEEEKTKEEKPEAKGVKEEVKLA

Regarding `Cc1ccc([C@@H](C)NC(=O)c2ccc(C(=O)NO)s2)cc1` [Example 2a, (R)-thiophene-2,5-dicarboxylic acid 2-hydroxyamide 5-[(1-p-tolyl-ethyl)-amide]], the IC50 in experiment [1] (Homo sapiens, 120 h) is 0.19 µM; on recombinant HDAC-1, 0.00341 µM.
Turning to `C[C@@H](NC(=O)c1ccc(C(=O)NO)s1)c1ccc(F)cc1` [Example 2b, (R)-thiophene-2,5-dicarboxylic acid 2-{[1-(4-fluoro-phenyl)-ethyl]-amide}5-hydroxyamide], the IC50 in experiment [1] (Homo sapiens, 120 h) stood at 0.17 µM; on recombinant HDAC-1, 0.00498 µM.
Turning to `C[C@@H](NC(=O)c1ccc(C(=O)NO)s1)c1ccc(Cl)cc1` [Example 2c, (R)-thiophene-2,5-dicarboxylic acid 2-{[1-(4-chloro-phenyl)-ethyl]-amide}5-hydroxyamide], the IC50 in experiment [1] (Homo sapiens, 120 h) turned out to be 0.05 µM; at recombinant HDAC-1, 0.00344 µM.
Turning to `C[C@@H](NC(=O)c1ccc(C(=O)NO)s1)c1ccc(Br)cc1` [Example 2d, (R)-thiophene-2,5-dicarboxylic acid 2-{[1-(4-bromo-phenyl)-ethyl]-amide}5-hydroxyamide], the IC50 in experiment [1] (Homo sapiens, 120 h) is 0.08 µM; on recombinant HDAC-1 it was 0.00388 µM.
The like results for `C[C@@H](NC(=O)c1ccc(C(=O)NO)s1)c1cccc2ccccc12` [Example 2e, (R)-thiophene-2,5-dicarboxylic acid 2-hydroxyamide 5-[(1-naphthalen-1-yl-ethyl)-amide]] were, in that order, 0.04 µM and 0.00173 µM.
For `C[C@@H](NC(=O)c1ccc(C(=O)NO)s1)c1ccc2ccccc2c1` [Example 2f, (R)-thiophene-2,5-dicarboxylic acid 2-hydroxyamide 5-[(1-naphthalen-2-yl-ethyl)-amide]], the IC50 in experiment [1] (Homo sapiens, 120 h) was 0.01 µM; at recombinant HDAC-1 it was 0.00497 µM.
The like results for `CC[C@@H](NC(=O)c1ccc(C(=O)NO)s1)c1ccccc1` [Example 2g, (R)-thiophene-2,5-dicarboxylic acid 2-hydroxyamide 5-[(1-phenyl-propyl)-amide]] were, in that order, 0.06 µM and 0.00118 µM.
Take `COc1cccc([C@@H](C)NC(=O)c2ccc(C(=O)NO)s2)c1` [Example 2h, (R)-thiophene-2,5-dicarboxylic acid 2-hydroxyamide 5-{[1-(3-methoxy-phenyl)-ethyl]-amide}]: the IC50 in experiment [1] (Homo sapiens, 120 h) was 0.07 µM; at recombinant HDAC-1, 0.00131 µM.
Consider `COc1ccc([C@@H](C)NC(=O)c2ccc(C(=O)NO)s2)cc1` [Example 2i, (R)-thiophene-2,5-dicarboxylic acid 2-hydroxyamide 5-{[1-(4-methoxy-phenyl)-ethyl]-amide}], for which the IC50 in experiment [1] (Homo sapiens, 120 h) was 0.05 µM; at recombinant HDAC-1 it was 0.00179 µM.
As for `COC[C@H](NC(=O)c1ccc(C(=O)NO)s1)c1ccccc1` [Example 2l, (R)-thiophene-2,5-dicarboxylic acid 2-hydroxyamide 5-[(2-methoxy-1-phenyl-ethyl)-amide]], the concentration for half-maximal inhibition (IC50) was found to be 0.58 µM in experiment [1] (Homo sapiens, 120 h) and 0.00317 µM at recombinant HDAC-1.
The like results for `O=C(NO)c1ccc(C(=O)N[C@@H]2CCc3ccccc32)s1` [Example 2m, (R)-thiophene-2,5-dicarboxylic acid 2-hydroxyamide 5-indan-1-ylamide] were, in that order, 0.3 µM and 0.00138 µM.
The corresponding values for `O=C(NO)c1ccc(C(=O)N[C@@H]2CCCc3ccccc32)s1` [Example 2n, (R)-thiophene-2,5-dicarboxylic acid 2-hydroxyamide 5-[(1,2,3,4-tetrahydro-naphthalen-1-yl)-amide]] are 0.35 µM and 0.00286 µM.
In the case of `C[C@H](NC(=O)c1ccc(C(=O)NO)s1)c1ccccc1` [Example 4a, (S)-thiophene-2,5-dicarboxylic acid 2-hydroxyamide 5-[(1-phenyl-ethyl)-amide]], the IC50 in experiment [1] was found to be 0.84 µM.
On to `C[C@H](NC(=O)c1ccc(C(=O)NO)s1)c1ccc(Cl)cc1` [Example 4c, (S)-thiophene-2,5-dicarboxylic acid 2-{[1-(4-chloro-phenyl)-ethyl]-amide}5-hydroxyamide], for which, in experiment [1], the IC50 was 0.84 µM.
As to `C[C@H](NC(=O)c1ccc(C(=O)NO)s1)c1ccc(Br)cc1` [Example 4d, (S)-thiophene-2,5-dicarboxylic acid 2-{[1-(4-bromo-phenyl)-ethyl]-amide}5-hydroxyamide], the IC50 in experiment [1] was determined as 0.88 µM.
On the same count and under the same terms, the same measure for `C[C@H](NC(=O)c1ccc(C(=O)NO)s1)c1ccc2ccccc2c1` [Example 4f, (S)-thiophene-2,5-dicarboxylic acid 2-hydroxyamide 5-[(1-naphthalen-2-yl-ethyl)-amide]]: 0.92 µM.
For `CC[C@H](NC(=O)c1ccc(C(=O)NO)s1)c1ccccc1` [Example 4g, (S)-thiophene-2,5-dicarboxylic acid 2-hydroxyamide 5-[(1-phenyl-propyl)-amide]], the IC50 worked out at 0.78 µM in experiment [1] (Homo sapiens, 120 h) and 0.00319 µM at recombinant HDAC-1.
Consider `COc1cccc([C@H](C)NC(=O)c2ccc(C(=O)NO)s2)c1` [Example 4h, (S)-thiophene-2,5-dicarboxylic acid 2-hydroxyamide 5-{[1-(3-methoxy-phenyl)-ethyl]-amide}], for which the IC50 on recombinant HDAC-1 was found to be 0.00179 µM.
In the case of `COc1ccc([C@H](C)NC(=O)c2ccc(C(=O)NO)s2)cc1` [Example 4i, (S)-thiophene-2,5-dicarboxylic acid 2-hydroxyamide 5-{[1-(4-methoxy-phenyl)-ethyl]-amide}], the IC50 in experiment [1] (Homo sapiens, 120 h) came to 0.56 µM; on recombinant HDAC-1, 0.0026 µM.
The corresponding values for `COC[C@@H](NC(=O)c1ccc(C(=O)NO)s1)c1ccccc1` [Example 4l, (S)-thiophene-2,5-dicarboxylic acid 2-hydroxyamide 5-[(2-methoxy-1-phenyl-ethyl)-amide]] are 0.16 µM and 0.00404 µM.
With `O=C(NO)c1ccc(C(=O)N[C@H]2CCc3ccccc32)s1` [Example 4m, (S)-thiophene-2,5-dicarboxylic acid 2-hydroxyamide 5-indan-1-ylamide], the IC50 at recombinant HDAC-1 worked out at 0.00297 µM.
Regarding `O=C(NO)c1ccc(C(=O)N[C@H]2CCCc3ccccc32)s1` [Example 4n, (S)-thiophene-2,5-dicarboxylic acid 2-hydroxyamide 5-[(1,2,3,4-tetrahydro-naphthalen-1-yl)-amide]], the IC50 in experiment [1] (Homo sapiens, 120 h) turned out to be 0.77 µM; on recombinant HDAC-1, 0.0008 µM.
With `C[C@@H](NC(=O)c1ccc(C(=O)NO)s1)c1cccs1` [Example 7, (R)-Thiophene-2,5-dicarboxylic Acid 2-hydroxyamide 5-[(1-thiophen-2-yl-ethyl)-amide]], the IC50 in experiment [1] (Homo sapiens, 120 h) turned out to be 0.06 µM; on recombinant HDAC-1, 0.00166 µM.
The corresponding values for `O=C(NO)c1ccc(C(=O)N[C@@H](CN2CCOCC2)c2ccccc2)s1` [Example 8c, (R)-thiophene-2,5-dicarboxylic acid 2-hydroxyamide 5-[(2-morpholin-4-yl-1-phenyl-ethyl)-amide]] are 0.63 µM and 0.00427 µM.
The like results for `C[C@@H](NC(=O)c1ccc(C(=O)NO)s1)c1ccc(C(F)(F)F)cc1` [Example 8d, (R)-thiophene-2,5-dicarboxylic acid 2-hydroxyamide 5-{[1-(4-trifluoromethyl-phenyl)-ethyl]-amide}] were, in that order, 0.03 µM and 0.00126 µM.
The corresponding values for `C[C@@H](NC(=O)c1ccc(C(=O)NO)s1)c1ccc(C(C)(C)C)cc1` [Example 8e, (R)-thiophene-2,5-dicarboxylic acid 2-{[1-(4-tert-butyl-phenyl)-ethyl]-amide}5-hydroxyamide] are 0.01 µM and 0.00108 µM.
Regarding `O=C(NO)c1ccc(C(=O)N[C@H](CN2CCOCC2)c2ccccc2)s1` [Example 10c, (S)-thiophene-2,5-dicarboxylic acid 2-hydroxyamide 5-[(2-morpholin-4-yl-1-phenyl-ethyl)-amide]], the IC50 on recombinant HDAC-1 was 0.00194 µM.
